One data set deals with 4T1 tumor. Briefly: 4T1 metastasis tumor model, treatment with or without photothermal therapy. It counts as in vivo, Balb/c mice.
For the next data set, the system named is HEK-Blue hTLR3 cells. The experiment in a line: Agonist-induced TLR activation, HEK-Blue hTLR3 SEAP reporter cells. The format is cell-based, human. Particulars: dose-dependent, presence or absence of FBS, 24 hours. The procedure:
(§1) HEK-Blue hTLR3, hTLR8, and hTLR9 cells were obtained by co-transfecting the hTLR gene and an optimized secreted embryonic alkaline phosphatase (SEAP) reporter gene into HEK293 cells. HEK-Blue hTLR cells were cultured and maintained in DMEM with 10% FBS and 1% penicillin-streptomycin. […] After 24 hours, the supernatants were collected and mixed with Quanti-Blue™. TLR activation associated with SEAP activity was determined with a multiwell plate reader by measuring the OD at 620 nm. The cell densities (in a 96 well plate) used were 8×10^4 cells/well for HEK-Blue hTLR9 cells, 5×10^4 cells/well for HEK-Blue hTLR3 cells, and 4×10^4 cells/well for HEK-Blue hTLR8 cells.
(§2) We further studied nanoparticle-mediated inhibition of proinflammatory molecules-induced TLR activation by using HEK-Blue human TLR (hTLR) cells.
(§3) HEK-Blue hTLR3, hTLR8 and hTLR9 were obtained by co-transfecting the hTLR gene and an optimized secreted embryonic alkaline phosphatase (SEAP) reporter gene into HEK293 cells. HEK-Blue hTLR cells were cultured and maintained in DMEM with 10% FBS and 1% penicillin-streptomycin. […] TLR activation associated with SEAP activity was determined with a multiwell plate reader by measuring the OD at 620 nm.

The subject of the next data set is calf thymus DNA. The experiment in a line: PicoGreen DNA-binding assay. Particulars: TE buffer, different material:DNA mass ratios, unbound PicoGreen-labeled DNA. The procedure: The fluorescence intensity of the unbound PicoGreen®-DNA complex at 520 nm was measured with a multiwell plate reader via excitation at 490 nm.
Inflammatory circulating cfDNA released by PTT-damaged host cells might cause a severe inflammatory response, which may be mitigated by the scavenging of cfDNA. Therefore, to interrogate the cfDNA scavenging ability of the various nanoparticles, the inventors investigated the calf thymus DNA binding affinity of the nanoparticles in Tris-EDTA (TE) buffer with and without 10% FBS by measuring unbound PicoGreen®-labeled DNA (FIGS. 5D and 5E).

A further data set concerns HEK-Blue hTLR4 cells. The experiment in a line: Agonist-induced TLR activation, HEK-Blue hTLR4 reporter cells. The format is cell-based, human. Particulars: dose-dependent, presence or absence of FBS, 24 hours.
Description: as §2

For the next data set, the system named is HEK-Blue hTLR9 cells. The experiment in a line: Agonist-induced TLR activation, HEK-Blue hTLR9 SEAP reporter cells. It counts as cell-based, human. Particulars: dose-dependent, presence or absence of FBS, 24 hours. The procedure: as §1, §2, §3
The next data set deals with COX-2 mRNA. The experiment in a line: COX-2 mRNA expression (RT-qPCR) in activated RAW264.7 cells. The format is cell-based, murine. Particulars: 24 h. The source says: (§4) TLRs recognize a variety of PAMPs and DAMPs that induce the secretion of several proinflammatory cytokines. Inhibiting TLR activation and blocking DAMP-TLR interactions is a promising strategy for alleviating PTT-induced inflammation and reducing tumor regeneration and metastasis.
In general terms: Quantitative PCR measures a nucleic acid by following its amplification.

A further data set concerns TNF-α. The experiment in a line: TNF-α production by activated RAW264.7 macrophages. It counts as cell-based, murine. Particulars: 24 h, 50 and 100 μg/ml.
Description: as §4

The mark [1] stands for this setting: without laser, intravenous three times per week.

Entries after “also recorded” stand apart in the source; their conditions may differ.

Regarding `COc1cc(/C=C/C(=O)CC(=O)/C=C/c2ccc(O)c(OC)c2)ccc1O` [curcumin], the “survival rates of mice” value in the data set with 4T1 tumor (after PTT) is “greatly improved”. The “tumor recurrence and metastasis” value in the data set with 4T1 tumor (after laser (PTT)) is “inhibited tumor recurrence and metastasis”. The “body weight of the mice” value in the data set on 4T1 tumor (after laser (PTT), intravenous three times per week) is “increased body weight”; in the data set with 4T1 tumor (setting [1]) it was “did not show obvious effects”. In the data set on 4T1 tumor (after laser (PTT), versus PBS and laser groups), the “cytokine levels (IL-6, TNF-α and IL-1 beta) in mouse serum, ELISA” value is “clearly lower”. In the data set with 4T1 tumor (setting [1]), the “size of the tumors / tumor suppression” value is on record as “did not show obvious effects; also recorded: small effect”. Moreover, in the data set on HEK-Blue hTLR3 cells, the “poly (I:C)-induced activation of HEK-Blue hTLR3 cells” value is “negligible inhibitory effect”. For the same compound, in the data set with calf thymus DNA, the DNA binding affinity entry is “negligible DNA binding ability”. In addition, the “LPS-induced activation of HEK-Blue hTLR4 cells” value with HEK-Blue hTLR4 cells was “negligible inhibitory effect”. For the same compound, the “CpG-induced activation of HEK-Blue hTLR9 cells” value with HEK-Blue hTLR9 cells is listed as “negligible inhibitory effect”. The figures for the “COX-2 mRNA expression” value in the data set on COX-2 mRNA (CpG-activated RAW264.7 cells) and with COX-2 mRNA (LPS-activated RAW264.7 cells) were “alleviated the generation of COX-2 mRNA in CpG-induced RAW264.7 cells to some extent” and “no obvious inhibitory effect”, respectively. The TNF-α production result is recorded as “slightly reduced” in the data set on TNF-α (CpG-activated RAW264.7 cells) and “only slightly reduced” in the data set with TNF-α (LPS-activated RAW264.7 cells).
`O=C(OC[C@H]1O[C@@H](OC(=O)c2cc(O)c(O)c(OC(=O)c3cc(O)c(O)c(O)c3)c2)[C@H](OC(=O)c2cc(O)c(O)c(OC(=O)c3cc(O)c(O)c(O)c3)c2)[C@@H](OC(=O)c2cc(O)c(O)c(OC(=O)c3cc(O)c(O)c(O)c3)c2)[C@@H]1OC(=O)c1cc(O)c(O)c(OC(=O)c2cc(O)c(O)c(O)c2)c1)c1cc(O)c(O)c(OC(=O)c2cc(O)c(O)c(O)c2)c1` [tannic acid]: the DNA binding affinity result in the data set with calf thymus DNA is on record as “can bind to DNA”.

(Values after patent US20250255984A1, “MNO NANOMATERIAL BASED INHIBITORS OF INFLAMMATION AND CANCER METASTASIS” (priority 2022, published 2025).)
